Measured values as given in patent US6469010B1, “Medicament for the alleviation or treatment of symptom derived from the ischemic disease and compound useful thereof” (Suntory Limited, priority 1995, dated 2002).
pIC50: −log10 of the molar value.

Legend:
T-type Ca2+ channel = experiment: T-type calcium channel inhibiting action (whole-cell patch clamp, hippocampal CA1 pyramidal cells); format: cell-based, Wistar rats; details: rat hippocampal CA1 pyramidal cells; suppression of peak current after one minute of application
Description: T-Type Calcium Channel Inhibiting Action
The hippocampal CA1 pyramidal cells were isolated from Wistar rats (female, 1 week old) in accordance with the method of Takahashi et al. K. Takahashi et al.; J Pharmacol. Exp; Ther., 256, 169 (1991)] and the T-type calcium current under conditions of a fixed membrane potential was measured using the whole-cell configuration of the pach clamp technique. The effects of the compounds were evaluated from the rate of suppression of the peak current after one minute of application using the concentration clamp method.

Na+ channel = experiment: Veratridine-induced sodium channel activity inhibiting action (membrane potential of synaptosomes, Rhodamine 6G); format: biochemical, Wistar rats; details: 0.1 μM of compound; rat brain synaptosomes, veratridine-induced depolarization
Description: Veratridine-induced Sodium Channel Activity Inhibiting Action
The membrane potential of the synaptosomes prepared from the brain membrane of Wistar rats (male, 10 to 12 weeks old) was measured by the method of Aiuchi et al. [T. Aiuchi et al: Biochimi. Biophys. Acta.

DBA/2N mice = experiment: Audiogenic seizure suppressing action; format: in vivo; details: Mus musculus, ip, 20 min; compound 10 mg/kg, i.p.; audio stimulus after 20 minutes; suppression of average seizure score; read-out: Antiseizure action (suppression rate %)
Description: Audiogenic Seizure Suppressing Action
The audiogenic seizure suppressing action of the compounds was evaluated by the method of Sarro et al. [G. B. De Sarro et al.; Br. J. Pharmacol., 93, 247 (1988)]. That is, DBA/2N mice (male, 3 weeks) were administered with the compound dissolved in 10% 2-hydroxypropyl-β-cyclodextrin intraperitoneally. After 20 minutes, a supersonic washer was used to apply audio stimulus of at least 90 dB for one minute. The wild running (WR), clonic seizures (clonus), tonic seizures (tonus), and respiratory arrest (RA) were evaluated. The seizure suppressing action was evaluated from the rate or suppression of the average value of the seizure score found from 0=no response, 1=WR, 2=clonus, 3=tonus, and 4=RA.

Dopamine D2 receptor = target: T1, Dopamine D2 receptor (Rattus norvegicus, UniProt P61169); experiment: Dopamine D2 receptor blocking action ([3H]raclopride binding, striatum membrane fraction); set-up: species or system Wister male rats; details: 1.0 nM [3H]raclopride, 25° C., one hour
T1 construct: membrane fraction prepared from the striatum of Wister male rats; from tissue; host or cells: rat striatum membrane fraction
T1 sequence (P61169 whole entry): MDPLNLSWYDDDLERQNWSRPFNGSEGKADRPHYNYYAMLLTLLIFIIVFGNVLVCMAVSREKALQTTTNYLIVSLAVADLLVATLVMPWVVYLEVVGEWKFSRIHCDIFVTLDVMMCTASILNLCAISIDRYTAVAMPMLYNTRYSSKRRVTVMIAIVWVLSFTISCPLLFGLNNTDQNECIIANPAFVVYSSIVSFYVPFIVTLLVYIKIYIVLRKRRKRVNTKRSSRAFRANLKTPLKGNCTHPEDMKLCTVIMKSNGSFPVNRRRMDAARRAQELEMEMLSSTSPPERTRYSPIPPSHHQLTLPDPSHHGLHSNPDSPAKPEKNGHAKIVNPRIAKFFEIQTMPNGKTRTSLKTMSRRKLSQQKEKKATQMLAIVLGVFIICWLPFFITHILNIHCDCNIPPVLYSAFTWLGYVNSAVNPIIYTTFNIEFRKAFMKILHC
Description: Dopamine D2 Receptor Blocking Action
57 μl of the membrane fraction prepared from the striatum of Wister male rats,(6 weeks old) was incubated in a buffer at 25° C. for one hour along with the compound and 1.0 nM [^3H) raclopride. A GF/C glass filter (0.1% polyethylene imine treatment) was used for separation of the B and F, then the radioactivity was measured by a beta plate and the effect of the compound was evaluated.

Acute toxicity test = details: male, mouse, in vivo, iv, ddY mice, death rate up to 24 hours after administration
Description: Medicine was intravenously administered to ddY mice (male, 6 weeks old). The 50 percent lethal dosage LD50 of the acute toxicity was calculated by an ordinary method from the death rate up to 24 hours after administration.

| Compound | pIC50 (T-type Ca2+ channel) | Antiveratridine action (inhibiting rate %) (Na+ channel) [%] | inhibition in vivo at 10 mg/kg (DBA/2N mice) [%] | pIC50 (Dopamine D2 receptor) | LD50 at 24 h (Acute toxicity test) [mg/kg] |
| --- | --- | --- | --- | --- | --- |
| OC(COc1ccccc1)CN1CCC(c2ccc(Oc3ccccc3)cc2)CC1 (centres unmarked) [Compound 80, 1-(2-hydroxy-3-phenoxy)propyl-4-(4-phenoxyphenyl)piperidine] | 5.72 | 49.7 | 66.3 |  |  |
| OC(CN1CCC(c2ccc(Cc3ccc(F)cc3)cc2)CC1)c1ccccc1 (centres unmarked) [Compound 79, 4-[4-(4-fluorophenyl)methylphenyl]-1-(2-hydroxy-2-phenyl)ethylpiperidine] | 5.51 | 37.1 | 79.8 |  |  |
| COc1cc(/C=C/CN2CCN(c3ccc(Cc4ccc(F)cc4)cc3)CC2)ccc1O [Compound 49] |  | 17.3 | 60 | 6.01 |  |
| Fc1ccc(Cc2ccc(C3CCN(C/C=C/c4ccccc4)CC3)cc2)cc1 [Compound 32, (E)-4-[4-(4-fluorophenyl)methylphenyl]-1-(3-phenyl-2-propenyl)piperidine] | 6.22 | 33.3 | 94 | 5.47 | 32.9 |
| C(=C\c1ccccc1)/CN1CCC(c2ccc(Oc3ccccc3)cc2)CC1 [Compound 21, (E)-4-(4-phenoxyphenyl)-1-(3-phenyl-2-propenyl)piperidine] | 6.10 | 20.3 | 77.3 | 5.57 | 40.9 |
| Fc1ccc(/C=C/CN2CCN(c3ccc(Cc4ccc(F)cc4)cc3)CC2)cc1 [Compound 50, (E)-1-[4-(4-fluorophenyl)methylphenyl]-4-[3-(4-fluorophenyl)-2-propenyl]-piperazine] | 5.38 |  | 72 |  |  |
| COc1ccc(Cc2ccc(C3CCN(C/C=C/c4ccccc4)CC3)cc2)cc1 [Compound 75, 4-[4-(4-methoxyphenyl)methylphenyl]-(E)-1-(3-phenyl-2-propenyl)piperidine] | 5.85 | 55.2 | 99 |  |  |
| c1ccc(Oc2ccc(C3CCN(CC4(c5ccccc5)OCCO4)CC3)cc2)cc1 [Compound 73, 2-[4-(4-phenoxyphenyl)piperidin-1-yl]methyl-2-phenyl-1,3-dioxolane] | 5.34 | 16.1 | 52.2 |  |  |
| COc1ccc(CN2CCN(c3ccc(Oc4ccccc4)cc3)CC2)c(OC)c1OC [Compound 46, 1-(4-phenoxyphenyl)-4-[(2,3,4-trimethoxyphenyl)methyl]piperazine] |  | 11.7 | 27.9 |  |  |
| Fc1ccc(Cc2ccc(N3CCN(C/C=C/c4ccccc4)CC3)cc2)cc1 [Compound 47] | 5.57 | 22.9 | 64.1 | 5.40 | 43.2 |
| COc1ccc(C(=O)CN2CCC(c3ccc(Oc4ccccc4)cc3)CC2)cc1 [Compound 66, 1-[2-(4-methoxyphenyl)-2-oxo]ethyl-4-(4-phenoxyphenyl)piperidine] |  | 19.6 | 39.2 |  |  |
| c1ccc(Oc2ccc(C3CCN(C[C@@H]4C[C@H]4c4ccccc4)CC3)cc2)cc1 (relative stereo) [Compound 26, 4-(phenoxyphenyl)-1-[trans-(2-phenyl)cyclopropylmethyl]piperidine] | 5.55 | 36.5 | 78 | 5.47 | 32.9 |
| OC(CN1CCC(c2ccc(Oc3ccccc3)cc2)CC1)c1ccc(Cl)cc1 (centres unmarked) [Compound 78, 1-[2-(4-chlorophenyl)-2-hydroxy]ethyl-4-(4-phenoxyphenyl)piperidine] |  | 44.4 | 66 |  |  |
| COc1cc(/C=C/CN2CCC(c3ccc(Oc4ccccc4)cc3)CC2)ccc1O [Compound 19, (E)-1-[3-(4-hydroxy-3-methoxyphenyl)-2-propenyl]-4-(4-phenoxyphenyl)piperidine] |  | 26.1 | 53.6 |  |  |
| O=C(CN1CCN(c2ccc(Cc3ccc(F)cc3)cc2)CC1)c1ccccc1 [Compound 82, 1-[4-(4-fluorophenyl)methylphenyl]-4-(2-phenyl-2-oxo)ethylpiperazine] |  | 16.9 | 71.9 |  |  |
